According to patent US20260165323A1, “USE OF STROBILURIN TYPE COMPOUNDS FOR COMBATING PHYTOPATHOGENIC FUNGI CONTAINING AN AMINO ACID SUBSTITUTION F129L IN THE MITOCHONDRIAL CYTOCHROME B PROTEIN CONFERRING RESISTANCE TO QO […]” (priority 2022, published 2026):

Tests used:
Type in all cases: in vivo
[1] = system: Phakopsora pachyrhizi containing the amino acid substitution F129L in the mitochondrial cytochrome b protein; assay: Use Example 2: protective control of soybean rust on soybeans (PHAKPA P6); conditions: inoculated six days after spraying, % diseased leaf area
Method in brief: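 Compound in acetone and/or DMSO with Wettol (99:1), diluted with water, was sprayed to run-off on potted soybean seedlings. After six days at 23–27°C and 60–80% RH, plants were inoculated with a Qo-resistant F129L strain and held 24 h at about 95% RH. Percent diseased leaf area was scored visually after up to 14 days.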

[2] = system: Phakopsora pachyrhizi containing the amino acid substitution F129L in the mitochondrial cytochrome b protein; assay: Use Example 1: protective control of soybean rust on soybeans (PHAKPA P2); conditions: inoculated 2 days after spraying, % diseased leaf area
Method in brief: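 Soybean seedling leaves sprayed to run-off with compound in acetone/DMSO–Wettol–water at the stated concentration, kept 2 days at 23-27° C, then inoculated with Qo-inhibitor-resistant F129L P. pachyrhizi. After 24 h at ~95% RH, 20-24° C, and up to 14 days in greenhouse, % diseased leaf area scored visually.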

[3] = system: Puccinia recondita; assay: Use Example 3: curative control of brown rust on wheat (PUCCRT K4); conditions: % diseased leaf area
Method in brief: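 Wheat seedlings inoculated with Puccinia recondita spores, held 24 h at 95–99% RH, 20–24° C in dark, then 3 days in greenhouse before spraying to run-off (curative). Compound in acetone/DMSO–Wettol–water. After 5–7 further days at 20–24° C, 65–70% RH, % diseased leaf area scored visually.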

[4] = system: Puccinia recondita; assay: Use Example 4: preventative control of brown rust on wheat (PUCCRT P7); conditions: inoculated seven days after spraying, % diseased leaf area
Method in brief: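 First two leaves of potted wheat seedlings sprayed to run-off with compound in acetone/DMSO–emulsifier–water, then inoculated with Puccinia recondita spores seven days later. Plants held 24 h dark at 95–99% RH and 20–24 °C, then 9–11 days in greenhouse; diseased leaf area (%) scored visually.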

Structure (SMILES)	% PHAKPA (F129L) Disease level P6 at 4 ppm [1]	% PHAKPA (F129L) Disease level P6 at 16 ppm [1]	% PHAKPA (F129L) Disease level P2 at 4 ppm [2]	% PHAKPA (F129L) Disease level P2 at 16 ppm [2]	% PUCCRT Disease level K4 at 4 ppm [3]	% PUCCRT Disease level K4 at 16 ppm [3]	% PUCCRT Disease level P7 at 4 ppm [4]	% PUCCRT Disease level P7 at 16 ppm [4]
CNC(=O)/C(=N/OC)c1cccc(Cl)c1CO/N=C(\COC)c1cc(F)cc(F)c1 [compound 86]	10%	0%	17%	0%	52%	4%	19%	4%
CNC(=O)/C(=N/OC)c1cccc(Cl)c1CO/N=C(/C#Cc1ccc(F)cc1)COC [compound 6, (2E)-2-[3-chloro-2-[[(Z)-[3-(4-fluorophenyl)-1-(methoxymethyl)prop-2-ynylidene]amino]oxymethyl]phenyl]-2-methoxyimino-N-methyl-acetamide]	28%	5%	8%	0%	38%	2%	8%	0%
CNC(=O)/C(=N/OC)c1cccc(Cl)c1CO/N=C(\COC)c1ccc(Cl)c(F)c1 [compound 109]	37%	4%	13%	2%	63%	4%	5%	0%
CO/C=C(/C(=O)OC)c1cccc(Cl)c1CO/N=C(\COC)c1ccc(Cl)cc1 [compound 35]	30%	4%	16%	1%	73%	7%	14%	0%
CCOC/C(=N\OCc1c(Cl)cccc1/C(=C\OC)C(=O)OC)c1ccc(Cl)cc1 [compound 45]	70%	15%	60%	8%	80%	68%	82%	27%
COC/C(=N\OCc1c(Cl)cccc1/C(=N\OC)C(=O)OC)c1c(F)cccc1F [compound 83]	0%	0%	2%	0%	37%	18%	32%	12%
CCOC/C(=N\OCc1c(Cl)cccc1/C(=N\OC)C(=O)NC)c1ccc(Cl)cc1 [compound 46]	68%	16%	80%	20%	67%	38%	60%	10%
COC/C(=N\OCc1c(Cl)cccc1/C(=N\OC)C(=O)OC)c1c(F)cc(F)cc1F [compound 28]	85%	27%	67%	13%	75%	77%	57%	4%
CO/C=C(/C(=O)OC)c1cccc(Cl)c1CO/N=C(\COC)c1cccc(Cl)c1F [compound 76]	0%	0%	10%	1%	41%	2%	35%	3%
CCOC/C(=N\OCc1c(F)cccc1/C(=C\OC)C(=O)OC)c1ccc(F)cc1 [compound 16]	70%	17%	20%	4%	83%	57%	80%	43%
CO/C=C(/C(=O)OC)c1cccc(Cl)c1CO/N=C(\COC)c1ccc(F)cc1Cl [compound 93]	43%	15%	13%	1%	83%	19%	53%	16%
CO/C=C(/C(=O)OC)c1cccc(Cl)c1CO/N=C(\COC)c1ccccc1F [compound 13, Methyl-(E)-2-[3-chloro-2-[[(Z)-[1-(2-fluorophenyl)-2-methoxy-ethylidene]amino]oxymethyl]phenyl]-3-methoxy-prop-2-enoate]	4%	0%	5%	0%	67%	4%	67%	18%
CNC(=O)/C(=N/OC)c1cccc(Cl)c1CO/N=C(\COC)c1ccc(Cl)cc1F [compound 100]	20%	3%	24%	2%	78%	6%	12%	4%
CNC(=O)/C(=N/OC)c1cccc(Cl)c1CO/N=C(\COC)c1cccc(C#N)c1 [compound 117]	34%	8%	59%	5%	18%	0%	14%	1%
CO/C=C(/C(=O)OC)c1cccc(Cl)c1CO/N=C(\COC)c1ccccc1C [compound 123]	38%	7%	41%	2%	72%	21%	77%	33%
CO/C=C(/C(=O)OC)c1cccc(Cl)c1CO/N=C(\COC)c1cc(F)c(F)c(F)c1 [compound 67]	14%	0%	10%	0%	36%	3%	4%	3%
